Experimental data taken from US12295397B2, “Dietary peptides” (Diet4Life APS, priority 2015, dated 2025).
No end group written: not given here.

How the values were obtained:
pepsin = pepsin (Homo sapiens, UniProt P0DJD8); test: Pepsin digestion of meat, resistance of peptide to pepsin degradation; assay type: in vitro ADME; settings: present in proteolytic digests
Experimental: Minced meat is diluted 1-10 times with distilled water, adjusted to pH 1-3 with hydrochloric acid, and incubated with 0.01-10% pepsin (w/w) at 4-40° C. for ½-12 h with adequate mixing. Insoluble material is removed by centrifugation at 100-1000×g for 3-30 min, and supernatant is neutralized with NaOH. Using sterile conditions, low molecular weight peptides in supernatant are recovered by tangential ultrafiltration at 4-40° C. for ½-12 h, and excess water is evaporated at 25-50° C. for up to 12 h. The concentrated dialysate is tested for bioactivity with cells and used for further purification by HPLC.

[1] = Stability of peptides in Fetal Bovine Serum, remaining activity read out in intestinal cells; assay type: in vitro ADME; settings: fold more stable than NT(8-13)
Experimental: All peptides were incubated at 10^−5 M with Fetal Bovine Serum (FBS; final concentration of 66.7%) (Sigma Aldrich, Denmark) at 37° C. for 3 hours. The peptide degradation was terminated using 1 M phosphoric acid (final 0.4 M, pH ˜1.2) and neutralized to pH 7.2-7.4 with NaOH before testing activity in intestinal cells. As for small intestine homogenates, a zero degradation control was included for each peptide.
DC7-2, NT, DKPYIL (SEQ ID NO: 8) and NT-(8-13) (final concentration of 10^-6 M) were incubated either with FBS or with 270× diluted intestinal homogenate at 37° C. for various time points with shaking. Degradation was stopped with 1 M phosphoric acid and the samples were subsequently neutralized and immediately tested with intestinal cells as described above. Control for zero degradation was included for each peptide as above. […]
(§1) Notes for Tables 1) Stability in serum is expressed as fraction of peptide activity left after 10 min of incubation in serum at 37° C. compared with undigested sample as described in Examples. 2) Stability in intestine is expressed as % activity left after 30 min incubation in intestine homogenate at 37° C. as described in Examples.

[2] = Stability of peptides in small intestine homogenate, remaining activity read out in intestinal cells; assay type: in vitro ADME, mice; settings: fold more stable than NT(8-13)
Experimental: Small intestines from 20 Swiss-Webster males were homogenized in 350 ml Dulbecco's phosphate-buffered saline (PBS) (pH 7.4) (ThermoFischer Scientific, Denmark) with a IKA® basic 18 Ultra-Turrax tissue homogenizer set a speed 5 followed by filtration using 100 μm nylon mesh filter. Protein concentration was 6 mg/ml using the bicinconinic acid assay (ThermoFischer Scientific, Denmark) and bovine serum albumin as standard. The intestine homogenate was diluted 10 times in HBSS containing 25 mM HEPES (pH 7.4), and further diluted 30×, 90×, 270×, 810× or 2430× before incubation with peptides. All solutions were prewarmed to 37° C. before mixing with peptide solutions.
Peptides were incubated at 10^−5 M with dilutions of small intestine homogenate at 37° C. for 90 minutes with shaking. Reactions were stopped by addition of 1 M phosphoric acid (final 0.4 M, pH ˜1.2). Each peptide incubation mix was then neutralized with NaOH to pH 7.2-7.4 and immediately tested for activity in intestinal cells. […]
as §1

Sequence of pepsin (P0DJD8 63-388): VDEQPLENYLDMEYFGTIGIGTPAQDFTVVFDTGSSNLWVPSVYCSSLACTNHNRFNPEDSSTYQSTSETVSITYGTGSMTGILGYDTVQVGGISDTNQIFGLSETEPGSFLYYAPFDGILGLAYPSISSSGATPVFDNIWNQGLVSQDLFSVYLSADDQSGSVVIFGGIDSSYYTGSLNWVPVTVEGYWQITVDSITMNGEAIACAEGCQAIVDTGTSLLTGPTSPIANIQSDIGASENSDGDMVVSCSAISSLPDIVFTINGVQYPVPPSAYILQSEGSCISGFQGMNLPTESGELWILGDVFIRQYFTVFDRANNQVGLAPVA

| Substance | Resistance to pepsin degradation (pepsin) | Stability in serum relative to neurotensin (8-13) RRPYIL [1] | Stability in intestine homogenate relative to neurotensin (8-13) RRPYIL [2] |
| --- | --- | --- | --- |
| ASDKPYIL [Peptide 36036, A SDKPYIL] | resistant to pepsin degradation | – | – |
| DKPYIL [Peptide 35978, D KPYIL] | – | around 100 times | 100-1000 × |
